Assay results published in patent publication US5034530A, “Imidazoquinoxaline compounds and their preparation and use” (Novo Nordisk A/S, priority 1988, dated 1991).

Tested on: benzodiazepine receptors
Assay: in vivo displacement of 3H-flunitrazepam specific binding from brain benzodiazepine receptors in mice
Conditions: dose reducing specific 3H-flunitrazepam binding in living mouse brain to 50% of control; test substance i.p. 15 min before i.v. 3H-FNM; female mice; forebrain
From the text: The pharmaceutical properties of the compounds of the invention can be illustrated by determining their capability for displacing radioactive labelled flunitrazepam from benzodiazepine receptors.
The displacement activity of the compounds of the invention may be found by determining the ED50 value. The ED50 value represents the dose (mg/kg) of a test substance which causes the specific binding of flunitrazepam to benzodiazepine receptors in a living brain to be reduced to 50% of the control value.
Such an in vivo test is carried out as follows:
Principle. Twenty minutes after a dose of ^3 H-flunitrazepam (^3 H-FNM) (200 μCi/kg, i.v.) the amount of specific ^3 H-FNM binding to brain benzodiazepine receptors has reached its maximal value.
Test procedure. Suspensions of test substances (2 mg/ml) are prepared in 5% Duphasol-X (TM Duphar, castor oil-ethylene oxide derivative for emulsifying and solubilizing oil and other water-insoluble substances) by sonification for 10 min using a Branson B15 microtip ultrasonifier (setting 7). Groups of three mice (female, NMR, 18-22 grams) are injected with the test substance at 100 mg/kg intraperitoneally. Fifteen minutes after test substance administration the mice are challenged with 4 μCi intravenously of ^3 H-FNM (70-90 Ci/mole) in 200 μl physiological saline. Twenty minutes after ^3 H-FNM administration mice are sacrificed by decapitation, the forebrains rapidly excised (within 30 sec) and homogenized in 12 ml of icecold 25 mM KH2 PO4, pH 7.1, using an Ultra-Turrax homogenizer fitted with an N 10 shaft. […] The amounts of radioactivity on the filters are determined by conventional scintillation counting. […]
Results. The ED50 value is determined from dose response curves. If only one dose of test substance is administered the ED50 value is calculated as follows, provided that the inhibition of specific binding is within the range of 25-75%: [formula] where Co is specific binding in controls and Cx is specific binding in mice treated with test substance.

Compound | ED50
Cc1nc2ccccc2n2cnc(-c3noc(C4CC4)n3)c12 [Compound 7, 3-(5-Cyclopropyl-1,2,4-oxadiazol-3-yl)-4-methyl-imidazo[1,5-a]quinoxaline] | 1.3 mg/kg
Cc1nc(-c2ncn3c2c(C)nc2ccccc23)no1 [Compound 8, 4-Methyl-3-(5-methyl-1,2,4-oxadiazol-3-yl)-imidazo[1,5-a]quinoxaline] | 1.8 mg/kg
Cc1nc2ccccc2n2cnc(-c3nc(C4CC4)no3)c12 [Compound 10, 3-(3-Cyclopropyl-1,2,4-oxadiazol-5-yl)-4-methyl-imidazo[1,5-a]quinoxaline] | 3.5 mg/kg
